# Laboratory results from paper PMC9837800 (Journal of medicinal chemistry, 2022).
# Experiments:
# PKMYT1 [1] = molecular target: T1, PKMYT1 (Homo sapiens, UniProt Q99640)
# T1 sequence (Q99640 1-499): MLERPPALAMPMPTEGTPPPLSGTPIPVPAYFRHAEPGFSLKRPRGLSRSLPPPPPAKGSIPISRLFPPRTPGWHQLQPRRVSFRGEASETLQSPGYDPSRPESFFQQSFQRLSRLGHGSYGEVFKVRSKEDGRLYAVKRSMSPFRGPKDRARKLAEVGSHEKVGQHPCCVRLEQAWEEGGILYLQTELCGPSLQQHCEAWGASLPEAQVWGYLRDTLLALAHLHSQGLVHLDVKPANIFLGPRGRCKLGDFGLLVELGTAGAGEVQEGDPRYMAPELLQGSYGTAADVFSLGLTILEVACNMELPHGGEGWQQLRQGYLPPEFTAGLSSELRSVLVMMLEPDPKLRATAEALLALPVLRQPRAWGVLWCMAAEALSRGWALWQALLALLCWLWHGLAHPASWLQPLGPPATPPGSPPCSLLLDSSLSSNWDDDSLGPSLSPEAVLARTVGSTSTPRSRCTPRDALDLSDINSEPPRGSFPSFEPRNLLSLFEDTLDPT
# in vitro [2] = conditions: human, Caco-2
# in vivo [3] = conditions: male, beagle, dog, plasma, iv, 0.5 mg/kg
# [4] = CD-1 mouse pharmacokinetic study; conditions: female, in vivo, iv, 1 mg/kg
# in vivo [5] = conditions: male, Sprague-Dawley, rat, iv, 1 mg/kg
# in vitro [6] = conditions: human, hepatocytes
# in vivo [7] = conditions: male, cynomolgus monkey, plasma, iv, 0.5 mg/kg
# [8] = tested on: OVCAR3 CCNE1 amplified xenograft; conditions: PO twice daily (BID), OVCAR3 model ref 6; cited from earlier work
# PKMYT1 [9] = molecular target: T1, PKMYT1; test: Fluorescence polarization competitive displacement screen with Tracer 178; conditions: Tracer 178 binding probe
smiles,measurement,setting,value
"Cc1ccccc1-n1c(N)c(C(N)=O)c2nc3ccccc3nc21 [Compound 2, reference compound]",PKMYT1 inhibition in biochemical ADP release enzymatic assay (in words),PKMYT1 [1],inactive
"Cc1cc(O)ccc1-n1c(N)c(C(N)=O)c2nc3ccccc3nc21 [Compound 3, 2-amino-1-(4-hydroxy-2-methyl-phenyl)pyrrolo[3,2-b]quinoxaline-3-carboxamide]",PKMYT1 inhibition in biochemical ADP release enzymatic assay (in words),PKMYT1 [1],inactive
"Cc1ccc(N)cc1-n1c(N)c(C(N)=O)c2nc3ccccc3nc21 [Compound 9, 2-amino-1-(5-amino-2-methyl-phenyl)pyrrolo[3,2-b]quinoxaline-3-carboxamide]",PKMYT1 inhibition in biochemical ADP release enzymatic assay (in words),PKMYT1 [1],inactive
"NC(=O)c1c(N)n(-c2cccc3[nH]ccc23)c2nc3ccccc3nc12 [Compound 11, 2-amino-1-(1H-indol-4-yl)pyrrolo[3,2-b]quinoxaline-3-carboxamide]",PKMYT1 inhibition in biochemical ADP release enzymatic assay (in words),PKMYT1 [1],inactive
"NC(=O)c1c(N)n(-c2cccc3[nH]nnc23)c2nc3ccccc3nc12 [Compound 12, 2-amino-1-(1H-benzotriazol-4-yl)pyrrolo[3,2-b]quinoxaline-3-carboxamide]",PKMYT1 inhibition in biochemical ADP release enzymatic assay (in words),PKMYT1 [1],inactive
"NC(=O)c1c(N)n(-c2cccc3[nH]cnc23)c2nc3ccccc3nc12 [Compound 13, 2-amino-1-(1H-benzimidazol-4-yl)pyrrolo[3,2-b]quinoxaline-3-carboxamide]",PKMYT1 inhibition in biochemical ADP release enzymatic assay (in words),PKMYT1 [1],inactive
"Cc1ccc(C(F)F)cc1-n1c(N)c(C(N)=O)c2nc3ccccc3nc21 [Compound 14, 2-amino-1-[5-(difluoromethyl)-2-methyl-phenyl]pyrrolo[3,2-b]quinoxaline-3-carboxamide]",PKMYT1 inhibition in biochemical ADP release enzymatic assay (in words),PKMYT1 [1],inactive
"Cc1c(O)ccc(Cl)c1-n1c(N)c(C(N)=O)c2nc3ccccc3nc21 [Compound 17, 2-amino-1-(6-chloro-3-hydroxy-2-methyl-phenyl)pyrrolo[3,2-b]quinoxaline-3-carboxamide]",Papp A→B,in vitro [2],14.1 ×10⁻⁶ cm/s
"NC(=O)c1c(N)n(-c2c(Cl)ccc(O)c2Cl)c2nc3ccccc3nc12 [Compound 18, 2-amino-1-(2,6-dichloro-3-hydroxy-phenyl)pyrrolo[3,2-b]quinoxaline-3-carboxamide]",Papp A→B,in vitro [2],18.8 ×10⁻⁶ cm/s
"Cc1ccc(O)c(C)c1-n1c(N)c(C(N)=O)c2cc(Cl)cnc21 [Compound 55, (S)-2-amino-5-chloro-1-(3-hydroxy-2,6-dimethyl-phenyl)pyrrolo[2,3-b]pyridine-3-carboxamide]",clearance at 24 h,in vivo [3],21.3 mL/min/kg
same,clearance at 24 h,[4],59.2 mL/min/kg
same,clearance at 24 h,in vivo [5],25.6 mL/min/kg
same,hepatocyte CLint,in vitro [6],4.5 µL/min/1e6 cells
same,clearance at 24 h,in vivo [7],19.4 mL/min/kg
"Cc1cc2c(C(N)=O)c(N)n(-c3c(C)ccc(O)c3C)c2nc1C [RP-6306, (S)-2-amino-1-(3-hydroxy-2,6-dimethyl-phenyl)-5,6-dimethyl-pyrrolo[2,3-b]pyridine-3-carboxamide]",clearance at 24 h,in vivo [3],13.1 mL/min/kg
same,clearance at 24 h,[4],30.4 mL/min/kg
same,maximum tolerated dose,[8],20 mg/kg
Cc1nc(Nc2ncc(C(=O)Nc3c(C)cccc3Cl)s2)cc(N2CCN(CCO)CC2)n1 [dasatinib],result in focused screen of 560 known kinase inhibitors,PKMYT1 [9],potent hits
